Measured values taken from patent US20120108585A1, “BENZOXAZOLES, BENZTHIAZOLES AND RELATED ANALOGS AS SIRTUIN MODULATORS” (Sirtris Pharmaceuticals, Inc., priority 2008, published 2012).

Target: T1, SIRT1 (Homo sapiens, UniProt Q96EB6)
T1 sequence (Q96EB6 1-747): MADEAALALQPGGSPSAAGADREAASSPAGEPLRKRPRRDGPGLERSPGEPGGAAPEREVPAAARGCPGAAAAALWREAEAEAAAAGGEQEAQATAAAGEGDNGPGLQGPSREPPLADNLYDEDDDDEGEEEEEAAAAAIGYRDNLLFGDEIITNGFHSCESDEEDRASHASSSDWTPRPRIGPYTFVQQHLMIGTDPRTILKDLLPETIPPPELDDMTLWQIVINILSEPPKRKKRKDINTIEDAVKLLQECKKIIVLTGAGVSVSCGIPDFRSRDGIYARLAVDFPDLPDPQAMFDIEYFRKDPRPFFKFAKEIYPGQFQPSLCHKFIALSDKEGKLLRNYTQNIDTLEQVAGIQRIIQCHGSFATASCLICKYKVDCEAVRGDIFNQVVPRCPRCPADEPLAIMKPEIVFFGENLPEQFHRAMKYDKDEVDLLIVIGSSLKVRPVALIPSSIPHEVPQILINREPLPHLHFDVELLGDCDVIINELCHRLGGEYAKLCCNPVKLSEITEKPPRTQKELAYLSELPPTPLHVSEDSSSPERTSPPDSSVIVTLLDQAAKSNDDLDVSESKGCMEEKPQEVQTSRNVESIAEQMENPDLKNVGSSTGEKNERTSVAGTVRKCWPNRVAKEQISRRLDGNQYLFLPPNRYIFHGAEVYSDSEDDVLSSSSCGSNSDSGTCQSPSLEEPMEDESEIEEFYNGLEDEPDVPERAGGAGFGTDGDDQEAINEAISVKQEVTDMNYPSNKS
Assay: mass spectrometry based assay to identify modulators of SIRT1 activity (deacetylation of p53-based acetylated peptide)
Format: biochemical
Details: SIRT1 activation, 10 nM SIRT1, 0.5 μM peptide substrate, 120 μM βNAD+, 25 minutes at 25° C.; for Emax: 25 min, read-out: % Fold Act. (percent maximum fold activation)
From the text: A mass spectrometry based assay was used to identify modulators of SIRT1 activity. The mass spectrometry based assay utilizes a peptide having 20 amino acid residues as follows: Ac-EE-K(biotin)-GQSTSSHSK(Ac)NleSTEG-K(5TMR)-EE-NH2 (SEQ ID NO: 1) wherein K(Ac) is an acetylated lysine residue and Nle is a norleucine. The peptide is labeled with the fluorophore 5TMR (excitation 540 nm/emission 580 nm) at the C-terminus. The sequence of the peptide substrate is based on p53 with several modifications. In addition, the methionine residue naturally present in the sequence was replaced with the norleucine because the methionine may be susceptible to oxidation during synthesis and purification.
The mass spectrometry assay is conducted as follows: 0.5 μM peptide substrate and 120 μM βNAD^+ is incubated with 10 nM SIRT1 for 25 minutes at 25° C. in a reaction buffer (50 mM Tris-acetate pH 8, 137 mM NaCl, 2.7 mM KCl, 1 mM MgCl2, 5 mM DTT, 0.05% BSA). Test compounds may be added to the reaction as described above. The SirT1 gene is cloned into a T7-promoter containing vector and transformed into BL21(DE3). After the 25 minute incubation with SIRT1, 10 μL of 10% formic acid is added to stop the reaction. Reactions are sealed and frozen for later mass spec analysis. Determination of the mass of the substrate peptide allows for precise determination of the degree of acetylation (i.e. starting material) as compared to deacetylated peptide (product).
A control for inhibition of sirtuin activity is conducted by adding 1 μL of 500 mM nicotinamide as a negative control at the start of the reaction (e.g., permits determination of maximum sirtuin inhibition). A control for activation of sirtuin activity is conducted using 10 nM of sirtuin protein, with 1 μL of DMSO in place of compound, to determine the amount of deacetylation of the substrate at a given timepoint within the linear range of the assay. This timepoint is the same as that used for test compounds and, within the linear range, the endpoint represents a change in velocity.
For the above assay, SIRT1 protein was expressed and purified as follows. The SirT1 gene was cloned into a T7-promoter containing vector and transformed into BL21(DE3). The protein was expressed by induction with 1 mM IPTG as an N-terminal His-tag fusion protein at 18° C. overnight and harvested at 30,000×g. Cells were lysed with lysozyme in lysis buffer (50 mM Tris-HCl, 2 mM Tris[2-carboxyethyl]phosphine (TCEP), 10 μM ZnCl2, 200 mM NaCl) and further treated with sonication for 10 min for complete lysis. The protein was purified over a Ni-NTA column (Amersham) and fractions containing pure protein were pooled, concentrated and run over a sizing column (Sephadex S200 26/60 global). The peak containing soluble protein was collected and run on an Ion-exchange column (MonoQ). Gradient elution (200 mM-500 mM NaCl) yielded pure protein. This protein was concentrated and dialyzed against dialysis buffer (20 mM Tris-HCl, 2 mM TCEP) overnight. The protein was aliquoted and frozen at −80° C. until further use.
Sirtuin modulating compounds that activated SIRT1 were identified using the assay described above and are shown below in Table 1. The EC1-5 values for the activating compounds are represented by A (EC1-5<1.0 uM), B (EC1-5 1-25 uM), C (EC1-5>25 uM). The percent maximum fold activation is represented by A (Fold activation>150%) or B (Fold Activation<150%).

SMILES	Emax [%]	EC1.5
O=C(Nc1cccc(CN2CCOCC2)n1)c1cccc2nc(-c3cc(F)ccc3C(F)(F)F)oc12 [Compound 136]	> 150	B (EC1-5 1-25 uM)
O=C(Nc1ccccn1)c1cccc2sc(-c3cccc(C(F)(F)F)c3)nc12 [Compound 112]	< 150	C (EC1-5>25 uM)
O=C(Nc1cccc(CN2CCOCC2)n1)c1cccc2nc(-c3ccccc3OC(F)(F)F)oc12 [Compound 120]	> 150	A (EC1-5<1.0 uM)
O=C(Nc1ccccn1)c1cccc2oc(-c3cc(F)ccc3C(F)(F)F)nc12 [Compound 148]	< 150	C (EC1-5>25 uM)
O=C(Nc1cccc(CN2CCOCC2)n1)c1cccc2oc(-c3ccccc3C(F)(F)F)nc12 [Compound 140]	> 150	A (EC1-5<1.0 uM)
O=C(Nc1nccs1)c1ccnc2sc(-c3cccc(C(F)(F)F)c3)nc12 [Compound 109]	< 150	C (EC1-5>25 uM)
O=C(Nc1nc(CN2CCOCC2)cs1)c1cccc2oc(-c3cc(F)ccc3C(F)(F)F)nc12 [Compound 149]	> 150	A (EC1-5<1.0 uM)
O=C(Nc1cccc(N2CCOCC2)n1)c1cccc2sc(-c3cccc(C(F)(F)F)c3)nc12 [Compound 151]	< 150	A (EC1-5<1.0 uM)
O=C(Nc1nccs1)c1cccc2nc(-c3ccccc3C(F)(F)F)oc12 [Compound 121]	> 150	B (EC1-5 1-25 uM)
O=C(Nc1cccc(CN2CCOCC2)n1)c1cccc2oc(-c3ccc(F)cc3C(F)(F)F)nc12 [Compound 146]	> 150	A (EC1-5<1.0 uM)
O=C(Nc1ccccn1)c1cccc2nc(-c3ccccc3C(F)(F)F)oc12 [Compound 122]	> 150	B (EC1-5 1-25 uM)
O=C(Nc1nccs1)c1cccc2oc(-c3cc(F)ccc3C(F)(F)F)nc12 [Compound 147]	< 150	C (EC1-5>25 uM)
O=C(Nc1nccs1)c1cccc2oc(-c3ccccc3C(F)(F)F)nc12 [Compound 137, N-(thiazol-2-yl)-2-(2-(trifluoromethyl)phenyl)benzo[d]oxazole-4-carboxamide]	> 150	B (EC1-5 1-25 uM)
O=C(Nc1cccnc1)c1cccc2sc(-c3cccc(N4CCOCC4)c3)nc12 [Compound 127]	< 150	C (EC1-5>25 uM)
O=C(Nc1ccccn1)c1cccc2oc(-c3ccccc3OC(F)(F)F)nc12 [Compound 142]	> 150	B (EC1-5 1-25 uM)
O=C(Nc1ccccn1)c1cccc2oc(-c3ccc(F)cc3C(F)(F)F)nc12 [Compound 144]	< 150	B (EC1-5 1-25 uM)
O=C(Nc1cccc2oc(-c3ccccc3)nc12)c1cscn1 [Compound 100]	< 150	C (EC1-5>25 uM)
O=C(Nc1ccccn1)c1ccnc2sc(-c3cccc(C(F)(F)F)c3)nc12 [Compound 110]	< 150	C (EC1-5>25 uM)
O=C(Nc1cccc2oc(-c3cccc(C(F)(F)F)c3)nc12)c1cnccn1 [Compound 103]	< 150	C (EC1-5>25 uM)
O=C(Nc1nc(CN2CCOCC2)cs1)c1cccc2oc(-c3ccc(F)cc3C(F)(F)F)nc12 [Compound 145]	> 150	B (EC1-5 1-25 uM)

SMILES	Emax [%]	EC1.5
O=C(Nc1nc(CN2CCOCC2)cs1)c1cccc2nc(-c3cc(F)ccc3C(F)(F)F)oc12 [Compound 135]	> 150	B (EC1-5 1-25 uM)
O=C(Nc1cccc(CN2CCOCC2)n1)c1cccc2nc(-c3ccc(F)cc3C(F)(F)F)oc12 [Compound 133]	> 150	B (EC1-5 1-25 uM)
O=C(Nc1ccnc(N2CCCC2)c1)c1cccc2sc(-c3cccc(C(F)(F)F)c3)nc12 [Compound 154]	> 150	A (EC1-5<1.0 uM)
O=C(Nc1nccs1)c1cccc2sc(-c3cccc(C(F)(F)F)c3)nc12 [Compound 111]	< 150	C (EC1-5>25 uM)
O=C(Nc1nccs1)c1cccc2nc(-c3cccc(C(F)(F)F)c3)oc12 [Compound 106]	< 150	C (EC1-5>25 uM)
O=C(Nc1cccc(N2CCCC2)n1)c1cccc2sc(-c3cccc(C(F)(F)F)c3)nc12 [Compound 153]	> 150	B (EC1-5 1-25 uM)
O=C(Nc1ccccn1)c1cccc2sc(-c3cccnc3)nc12 [Compound 129]	< 150	C (EC1-5>25 uM)
O=C(Nc1nc(CN2CCOCC2)cs1)c1cccc2nc(-c3ccccc3C(F)(F)F)oc12 [Compound 123]	> 150	B (EC1-5 1-25 uM)
O=C(Nc1nccs1)c1cccc2oc(-c3ccccc3OC(F)(F)F)nc12 [Compound 141]	> 150	B (EC1-5 1-25 uM)
O=C(Nc1ccccn1)c1cccc2nc(-c3cccc(C(F)(F)F)c3)oc12 [Compound 107]	< 150	C (EC1-5>25 uM)
O=C(Nc1ccccn1)c1cccc2sc(-c3cccc(N4CCOCC4)c3)nc12 [Compound 126]	< 150	C (EC1-5>25 uM)
O=C(Nc1nccs1)c1cccc2sc(-c3cccc(OC(F)(F)F)c3)nc12 [Compound 114]	< 150	C (EC1-5>25 uM)
O=C(Nc1ccccn1)c1cccc2sc(-c3cccc(OC(F)(F)F)c3)nc12 [Compound 115]	< 150	C (EC1-5>25 uM)
O=C(Nc1ccccn1)c1cccc2nc(-c3ccccc3OC(F)(F)F)oc12 [Compound 118]	> 150	B (EC1-5 1-25 uM)
O=C(Nc1ccccn1)c1cccc2nc(-c3ccc(F)cc3C(F)(F)F)oc12 [Compound 131]	> 150	B (EC1-5 1-25 uM)
O=C(Nc1cccnc1)c1cccc2sc(-c3cccc(C(F)(F)F)c3)nc12 [Compound 113]	< 150	C (EC1-5>25 uM)
O=C(Nc1nccs1)c1cccc2sc(-c3cccc(N4CCOCC4)c3)nc12 [Compound 125]	< 150	C (EC1-5>25 uM)
O=C(Nc1ccccn1)c1cccc2oc(-c3ccccc3C(F)(F)F)nc12 [Compound 138]	> 150	B (EC1-5 1-25 uM)
O=C(Nc1nc(CN2CCOCC2)cs1)c1cccc2nc(-c3ccc(F)cc3C(F)(F)F)oc12 [Compound 132]	> 150	B (EC1-5 1-25 uM)
O=C(Nc1cccc(CN2CCOCC2)n1)c1cccc2nc(-c3ccccc3C(F)(F)F)oc12 [Compound 124]	> 150	A (EC1-5<1.0 uM)
